Among the test systems are 786-0 renal; LXFL 529 NSCLC; M19-MEL melanoma; XF 498 CNS; KM20L2 colon; SNB-78 CNS; DLD-1 colon; RXF-631 renal; P388 leukemia; P388/ADR leukemia; SN12K1 renal.
Common to all, as to test: NCI tumour cell line growth inhibition, 48 h

Molecules are shown by their SMILES.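 Following 48 hours of exposure in 96-well plates, responses at five concentrations were used to interpolate endpoints linearly. Definition used: TGI = concentration required for complete inhibition of growth.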

On to `c1ccc(-c2nn(-c3ccccc3)[n+](-c3ccccc3)n2)cc1`, for which, in the experiment on 786-0 renal, the TGI was > 93.5 µM.

`CCC(C)C(=O)c1c(O)c(C/C=C(\C)CCC=C(C)C)c(O)c2c(C(O)CC)cc(=O)oc12` (centres undefined): the TGI in the experiment with LXFL 529 NSCLC was found to be 2.99 µM; in the experiment with M19-MEL melanoma, 6.51 µM; in the experiment with XF 498 CNS, 4.53 µM; in the experiment on KM20L2 colon, 2.68 µM; with SNB-78 CNS, 16.7 µM; with DLD-1 colon it was 11.3 µM. The TGI in the experiment on RXF-631 renal came out at 14.2 µM.

Turning to `CC[n+]1c(/C=C/c2ccc(N(CCCl)CCCl)cc2)ccc2cc(NC(=O)/C=C/c3ccccc3)ccc21`, the TGI in the experiment with SNB-78 CNS is 16 µM; with 786-0 renal, 3.22 µM.

As for `Cn1c(-c2ccc(/C=N\N3CCN(/N=C/c4ccc(-c5c[n+]6ccccc6n5C)cc4)CC3)cc2)c[n+]2ccccc12`, in the experiment with 786-0 renal, the TGI is 70.7 µM.

On to `COc1ccc(CC(C)N)cc1` (centres undefined), for which the TGI in the experiment on LXFL 529 NSCLC, with XF 498 CNS, in the experiment on KM20L2 colon, in the experiment on SNB-78 CNS, in the experiment with DLD-1 colon and in the experiment with RXF-631 renal was > 100 µM throughout. In addition, the TGI with 786-0 renal is > 100 µM.

With `CC1(C)N=C(N)N=C(N)N1c1cccc(OCCOc2ccc([N+](=O)[O-])cc2)c1`, the TGI with 786-0 renal is > 100 µM.

With `COc1cc(C2c3cc4c(cc3[C@@H](Nc3cccc(C(C)=O)c3)C3COC(=O)[C@H]23)OCO4)cc(OC)c1O` (some centres undefined), the TGI in the experiment with M19-MEL melanoma was > 57.7 µM; in the experiment on P388 leukemia, 254 nM; with XF 498 CNS, 14.9 µM; with KM20L2 colon it was > 23.3 µM; in the experiment with SNB-78 CNS it was > 100 µM; in the experiment on P388/ADR leukemia, 2530 nM. Besides, the TGI with DLD-1 colon was 4.93 µM; with SN12K1 renal it was 4.61 µM.

Consider `O=[N+]([O-])c1cn[n+]([O-])c2ccccc12`, for which the TGI with 786-0 renal stood at 12.3 µM.

`COc1ccc(NC(=O)/C(CC2=Nc3ccc([N+](=O)[O-])cc3NC2O)=N\NC(=O)C[N+](C)(C)C)c(OC)c1` (centres undefined): the TGI in the experiment with 786-0 renal amounted to 68.8 µM.

Consider `COc1ccc(-c2cc(N3CCN(c4ccccc4)CC3)c(C#N)c(=O)o2)cc1`, for which the TGI with LXFL 529 NSCLC was > 100 µM; in the experiment with XF 498 CNS, 19.8 µM; in the experiment on KM20L2 colon it was > 100 µM; in the experiment on SNB-78 CNS, 59 µM; in the experiment with DLD-1 colon, > 100 µM; in the experiment on RXF-631 renal it was > 100 µM.

On to `Cc1ccc(S(N)(=O)=O)cc1`, for which the TGI with 786-0 renal was > 1000 µM.

Consider `CN(C)c1ccc(N=Nc2ccccn2)cc1`, for which, in the experiment on 786-0 renal, the TGI is > 100 µM.

As to `NCc1ccccc1C1CSCSC1`, the TGI with LXFL 529 NSCLC, in the experiment with M19-MEL melanoma, in the experiment on XF 498 CNS, in the experiment on SNB-78 CNS and in the experiment on DLD-1 colon was > 100 µM each time.

With `CC(C)(Br)C1(O)CCCN1C(=O)c1ccccc1` (centres undefined), the TGI with LXFL 529 NSCLC, with M19-MEL melanoma, with KM20L2 colon, in the experiment with SNB-78 CNS, in the experiment on DLD-1 colon and in the experiment on RXF-631 renal was > 100 µM throughout.

`C=C1C(=O)OC2C1CC(O)/C(C)=C\CCC1(C)OC21` (centres undefined): the TGI in the experiment on 786-0 renal was > 100 µM.

Consider `NCc1ccc(C(=O)O)cc1`, for which the TGI in the experiment on 786-0 renal is > 100 µM.

In the case of `CCO/N=[N+](\[O-])N(CC)CC`, the TGI with LXFL 529 NSCLC, in the experiment with M19-MEL melanoma, in the experiment with XF 498 CNS, with KM20L2 colon, with SNB-78 CNS and in the experiment with RXF-631 renal was > 100 µM throughout.

In the case of `COc1cc[n+](C)cc1`, the TGI with M19-MEL melanoma is > 100 µM; with P388 leukemia, > 100000 nM; in the experiment on XF 498 CNS, > 100 µM; with KM20L2 colon it was > 100 µM; with SNB-78 CNS, > 100 µM; in the experiment on P388/ADR leukemia, > 100000 nM. The TGI in the experiment on DLD-1 colon and in the experiment on SN12K1 renal was > 100 µM throughout.

The values above are taken from PubChem BioAssay (NCI).
